Results reported in PubChem BioAssay AID248 (DTP/NCI, 2004).
“And” between values parts separate entries of the source, which are not always exact repeats. Equal entries are not always repeated. Toxic doses and inconclusive results are not listed.

System: L1210 leukemia ip in BDF1 mice, survival T/C
Experiment: NCI In Vivo Anticancer Drug Screen. Data for tumor model L1210 Leukemia (intraperitoneal) in B6D2F1 (BDF1) mice
Settings: endpoint: mean survival time, higher = longer survival
Outline: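 Transplantable tumor model; survival measured in treated vs vehicle control mice. Value = treated/control.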

[1] = dose: 100.0 mg/kg/injection, schedule: Q01DX001 (ip), vehicle: saline
[2] = dose: 100.0 mg/kg/injection, schedule: Q04DX003 (ip), vehicle: Klucel (hydroxypropylcellulose) (HPC)
[3] = dose: 200.0 mg/kg/injection, schedule: Q04DX003 (ip), vehicle: Klucel (hydroxypropylcellulose) (HPC)

In the case of Cc1ccc(OCCOc2ccc(C)c(CC(Cl)(Cl)Cl)c2)cc1CC(Cl)(Cl)Cl, the T/C (dose: 100.0 mg/kg/injection, schedule: Q01DX001 (ip), vehicle: DMSO) is reported as 88 % of control, the T/C (dose: 200.0 mg/kg/injection, schedule: Q01DX001 (ip), vehicle: DMSO) is reported as 89 % of control and the T/C (dose: 400.0 mg/kg/injection, schedule: Q01DX001 (ip), vehicle: DMSO) is reported as 88 % of control.
With C[N+]12CC3C(O)CC1CCC32 (stereo not given) the T/C [1] was 101 % of control.
Nc1ccc2c(c1)-n1cccc1C2=O was tested, and the T/C [2] was 104 % of control and the T/C [3] was 101 % of control.
ClCC/C(=C(/Cl)c1ccccc1)c1ccccc1 was tested, and the T/C [2] was 103 % of control, the T/C [3] was 98 % of control and the T/C (dose: 400.0 mg/kg/injection, schedule: Q04DX003 (ip), vehicle: Klucel (hydroxypropylcellulose) (HPC)) was 98 % of control.
COc1ccc(OC)c(C(O)C(C)NC(C)(C)C)c1 (stereo not given) was tested, and the T/C (dose: 50.0 mg/kg/injection, schedule: Q01DX001 (ip), vehicle: saline) was 106 % of control and the T/C [1] was 97 % of control.
In the case of COc1c(N(C)C)cc2c(c1C)OC(C)(C)C=C2, the T/C (dose: 100.0 mg/kg/injection, schedule: Q04DX003 (ip), vehicle: saline with Tween-80) is reported as 96 % of control, the T/C (dose: 200.0 mg/kg/injection, schedule: Q04DX003 (ip), vehicle: saline with Tween-80) is reported as 94 % of control and the T/C (dose: 400.0 mg/kg/injection, schedule: Q04DX003 (ip), vehicle: saline with Tween-80) is reported as 96 % of control.
Brc1ccc(N2N=C(c3ccccc3)N(c3ccc(Br)cc3)N=C2c2ccccc2)cc1 was tested, and the T/C (dose: 100.0 mg/kg/injection, schedule: Q01DX001 (ip), vehicle: other) was 90 % of control, the T/C (dose: 100.0 mg/kg/injection, schedule: Q04DX003 (ip), vehicle: other) was 104 % of control and the T/C (dose: 200.0 mg/kg/injection, schedule: Q01DX001 (ip), vehicle: other) was 93 % of control. For the same compound, the T/C (dose: 200.0 mg/kg/injection, schedule: Q04DX003 (ip), vehicle: other) was 89 % of control, the T/C (dose: 400.0 mg/kg/injection, schedule: Q01DX001 (ip), vehicle: other) was 95 % of control and the T/C (dose: 400.0 mg/kg/injection, schedule: Q04DX003 (ip), vehicle: other) was 89 % of control.
With O=C1OC(=O)C2C(c3ccccc3)C=C(Cl)C(CCCl)C12 (stereo not given) the T/C (dose: 100.0 mg/kg/injection, schedule: Q01DX001 (ip), vehicle: Klucel (hydroxypropylcellulose) (HPC)) was 101 % of control, the T/C (dose: 200.0 mg/kg/injection, schedule: Q01DX001 (ip), vehicle: Klucel (hydroxypropylcellulose) (HPC)) was 97 % of control and the T/C (dose: 400.0 mg/kg/injection, schedule: Q01DX001 (ip), vehicle: Klucel (hydroxypropylcellulose) (HPC)) was 95 % of control.
For Cc1cccc(C(=O)C(O)(c2ccccc2)C2CCCCC2=O)c1 (stereo not given), the T/C (dose: 100.0 mg/kg/injection, schedule: Q04DX002 (ip), vehicle: Klucel (hydroxypropylcellulose) (HPC)) was 100 % of control, the T/C (dose: 200.0 mg/kg/injection, schedule: Q04DX002 (ip), vehicle: Klucel (hydroxypropylcellulose) (HPC)) was 92 % of control and the T/C (dose: 400.0 mg/kg/injection, schedule: Q04DX002 (ip), vehicle: Klucel (hydroxypropylcellulose) (HPC)) was 114 % of control.
COc1ccc(CCN(C)C2CC3CCC2(C)C3(C)C)cc1OC (stereo not given) was tested, and the T/C [1] was 93 % of control, the T/C (dose: 200.0 mg/kg/injection, schedule: Q01DX001 (ip), vehicle: saline) was 96 % of control and the T/C (dose: 400.0 mg/kg/injection, schedule: Q01DX001 (ip), vehicle: saline) was 100 % of control.
For CCOC(=O)c1cccc2nc3n(c12)CCC3, the T/C (dose: 50.0 mg/kg/injection, schedule: Q01DX009 (ip), vehicle: saline with Tween-80) was 105 % of control, the T/C (dose: 100.0 mg/kg/injection, schedule: Q01DX001 (ip), vehicle: saline with Tween-80) was 101 % of control and the T/C (dose: 100.0 mg/kg/injection, schedule: Q01DX009 (ip), vehicle: saline with Tween-80) was 95 % of control. For the same compound, the T/C (dose: 200.0 mg/kg/injection, schedule: Q01DX001 (ip), vehicle: saline with Tween-80) was 103 % of control and the T/C (dose: 200.0 mg/kg/injection, schedule: Q01DX009 (ip), vehicle: saline with Tween-80) was 94 % of control.
With O=NN(CCF)C(=O)NC1CCC(C(=O)O)CC1 (stereo not given) the T/C (dose: 4.0 mg/kg/injection, schedule: Q01DX001 (ip), vehicle: saline with Tween-80) was 105 % of control and 106 % of control, the T/C (dose: 6.0 mg/kg/injection, schedule: Q01DX001 (ip), vehicle: saline with Tween-80) was 108 % of control and the T/C (dose: 9.0 mg/kg/injection, schedule: Q01DX001 (ip), vehicle: saline with Tween-80) was 116 % of control and 119 % of control. For the same compound, the T/C (dose: 13.0 mg/kg/injection, schedule: Q01DX001 (ip), vehicle: saline with Tween-80) was 117 % of control, the T/C (dose: 20.0 mg/kg/injection, schedule: Q01DX001 (ip), vehicle: saline with Tween-80) was 152 % of control and the T/C (dose: 30.0 mg/kg/injection, schedule: Q01DX001 (ip), vehicle: saline with Tween-80) was 263 % of control and 206 % of control. For the same compound, the T/C (dose: 45.0 mg/kg/injection, schedule: Q01DX001 (ip), vehicle: saline with Tween-80) was 306 % of control and 432 % of control and the T/C (dose: 66.0 mg/kg/injection, schedule: Q01DX001 (ip), vehicle: saline with Tween-80) was 500 % of control.
O=C1CCOc2ccccc21 was tested, and the T/C (dose: 100.0 mg/kg/injection, schedule: Q04DX002 (ip), vehicle: other) was 87 % of control, the T/C (dose: 200.0 mg/kg/injection, schedule: Q04DX002 (ip), vehicle: other) was 90 % of control and the T/C (dose: 400.0 mg/kg/injection, schedule: Q04DX002 (ip), vehicle: other) was 94 % of control.
